The record followed here is ChEMBL document CHEMBL1146651, “Selective urokinase-type plasminogen activator (uPA) inhibitors. Part 3: 1-isoquinolinylguanidines” (Bioorg Med Chem Lett, 2004).

Assay [1] addresses Urokinase-type plasminogen activator (Homo sapiens, UniProt P00749).
Assay [2] has as its target T1, Plasminogen (Homo sapiens, UniProt P00747). In words: Inhibition of human plasmin activity with chromozym-PL as substrate.
Assay [3] addresses T2, Tissue-type plasminogen activator (Homo sapiens, UniProt P00750). In words: Inhibitory activity against human tissue type plasminogen activator using S-2444.
Target sequence in this assay (P00750 whole entry): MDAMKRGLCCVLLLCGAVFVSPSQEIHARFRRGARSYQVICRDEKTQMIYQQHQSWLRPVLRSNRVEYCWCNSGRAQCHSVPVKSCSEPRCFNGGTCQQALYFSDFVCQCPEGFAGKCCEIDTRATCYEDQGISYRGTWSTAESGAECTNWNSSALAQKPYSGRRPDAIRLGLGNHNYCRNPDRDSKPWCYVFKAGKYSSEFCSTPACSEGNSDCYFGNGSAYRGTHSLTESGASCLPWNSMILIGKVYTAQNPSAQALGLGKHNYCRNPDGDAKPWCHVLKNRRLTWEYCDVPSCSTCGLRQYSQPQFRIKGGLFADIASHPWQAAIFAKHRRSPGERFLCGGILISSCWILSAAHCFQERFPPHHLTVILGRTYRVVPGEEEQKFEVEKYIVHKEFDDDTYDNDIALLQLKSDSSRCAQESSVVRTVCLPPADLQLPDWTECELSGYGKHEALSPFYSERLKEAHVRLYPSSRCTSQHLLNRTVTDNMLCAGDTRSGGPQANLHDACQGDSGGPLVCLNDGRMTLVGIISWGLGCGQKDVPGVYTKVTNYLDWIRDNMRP
Assay [4] has as its target T2, Tissue-type plasminogen activator. In words: Inhibitory activity against human tissue type plasminogen activator was evaluated using S-2444 as substrate and tissue plasminogen activator stimulator at […].
Target sequence in this assay (P00750 36-562 limits assumed): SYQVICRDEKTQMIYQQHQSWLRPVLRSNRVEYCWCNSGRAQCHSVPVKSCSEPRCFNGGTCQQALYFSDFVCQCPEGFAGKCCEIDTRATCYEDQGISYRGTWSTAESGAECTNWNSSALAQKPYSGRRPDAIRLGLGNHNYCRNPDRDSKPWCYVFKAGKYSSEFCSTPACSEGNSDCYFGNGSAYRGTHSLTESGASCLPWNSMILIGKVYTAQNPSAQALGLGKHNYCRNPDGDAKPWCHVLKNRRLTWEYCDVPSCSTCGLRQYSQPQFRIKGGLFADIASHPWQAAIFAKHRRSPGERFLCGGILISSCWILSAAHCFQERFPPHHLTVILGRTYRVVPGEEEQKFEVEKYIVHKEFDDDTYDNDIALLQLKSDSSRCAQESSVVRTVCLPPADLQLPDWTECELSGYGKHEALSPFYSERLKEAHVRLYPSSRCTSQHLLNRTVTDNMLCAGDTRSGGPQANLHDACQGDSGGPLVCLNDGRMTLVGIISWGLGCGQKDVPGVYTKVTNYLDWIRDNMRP
The target in assay [5] is T1, Plasminogen. In words: Inhibitory activity against human plasmin was evaluated using chromozym-PL as substrate at 10 uM.
The target in assay [6] is T1, Plasminogen. In words: Inhibitory activity against human plasmin was evaluated using chromozym-PL as substrate at 100 mM.
Assay [7] addresses T1, Plasminogen. In words: (§1) Inhibitory activity against human plasmin was evaluated using chromozym-PL as substrate at 1 mM.
Assay [8] addresses T2, Tissue-type plasminogen activator. In words: Inhibitory activity against human tissue plasminogen activator was evaluated using S-2444 as substrate and tissue plasminogen activator stimulator at 1 mM.
Target sequence in this assay (P00750 36-562 limits assumed): as above
Assay [9] has as its target T1, Plasminogen. In words: Inhibitory activity of 30 uM compound against plasmin was evaluated using chromozym-PL as substrate.
In assay [10] the target is T1, Plasminogen. In words: Inhibitory activity against human plasmin was evaluated using chromozym-PL as substrate at 300 mM.
The target in assay [11] is T1, Plasminogen. In words: Inhibitory activity of 3 uM compound against plasmin was evaluated using chromozym-PL as substrate.
In assay [12] the target is T2, Tissue-type plasminogen activator. The assay can be described thus: Inhibitory activity against human tissue plasminogen activator was evaluated using S-2444 as substrate and tissue plasminogen activator stimulator at 30 uM.
Target sequence in this assay (P00750 36-562 limits assumed): as above
The target of assay [13] is T1, Plasminogen. The assay is described as §1. This is another data set of the same source.

pKi: −log10 of the molar value. A value given as a limit tells only on which side of the number the result lay.

T1 sequence (P00747 97-580 limits assumed): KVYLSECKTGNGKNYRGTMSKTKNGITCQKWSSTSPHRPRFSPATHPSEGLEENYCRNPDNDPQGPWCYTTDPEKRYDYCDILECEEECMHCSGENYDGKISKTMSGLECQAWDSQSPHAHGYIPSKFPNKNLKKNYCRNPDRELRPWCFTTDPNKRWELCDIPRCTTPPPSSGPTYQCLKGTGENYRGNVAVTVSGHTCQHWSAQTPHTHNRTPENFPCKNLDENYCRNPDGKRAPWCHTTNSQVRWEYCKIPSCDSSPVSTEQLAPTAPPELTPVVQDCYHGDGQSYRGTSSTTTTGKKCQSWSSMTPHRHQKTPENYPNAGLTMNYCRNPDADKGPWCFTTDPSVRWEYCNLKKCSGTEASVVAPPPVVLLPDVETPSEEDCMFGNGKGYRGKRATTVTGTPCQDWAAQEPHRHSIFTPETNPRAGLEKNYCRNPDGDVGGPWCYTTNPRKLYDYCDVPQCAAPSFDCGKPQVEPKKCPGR
T1 sequence (P00747 581-810 limits assumed): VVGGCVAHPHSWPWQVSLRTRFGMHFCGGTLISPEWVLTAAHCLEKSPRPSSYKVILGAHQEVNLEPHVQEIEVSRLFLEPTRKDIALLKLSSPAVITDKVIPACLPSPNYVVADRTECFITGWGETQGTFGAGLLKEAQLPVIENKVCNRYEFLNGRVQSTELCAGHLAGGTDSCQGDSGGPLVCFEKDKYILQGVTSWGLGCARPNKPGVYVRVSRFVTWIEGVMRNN

Turning to `N#Cc1ccc(-c2ccc3c(Cl)cnc(N=C(N)N)c3c2)cc1`, the pKi in assay [1] was 6.31.

On to `NC(N)=Nc1nccc2c(-c3ccccc3)cccc12`, for which the values for the pKi in assay [2], in assay [3] and in assay [1] were 4.32, 3.91 and less than 4.00, respectively.

As for `N=C(N)Nc1ccccn1`, in assay [1], the pKi was 4.54.

Compound `N#Cc1cccc(-c2ccc3c(Cl)cnc(NC(=N)N)c3c2)c1` registered an inhibition in [4] of less than 50%.

On to `N=C(N)Nc1ncc(Cl)c2ccc(-c3ccc4c(c3)OCO4)cc12`, for which the pKi in [2] is 5.49; in assay [1] it was 7.00. In addition, the inhibition in assay [4] was less than 50%.

Consider `CC(O)c1ccc2ccnc(N=C(N)N)c2c1` (configuration not stated), for which the values for the pKi in assay [2] and in assay [1] were 4.62 and 6.19, respectively. This compound also registered an inhibition in assay [4] of less than 50%.

On to `N=C(N)Nc1ncc(Cl)c2ccc(-c3cccc(C(=O)O)c3)cc12`, for which the inhibition in [5] and in assay [4] was less than 50% throughout.

For the compound `Cc1cnc(N=C(N)N)c2ccccc12`, the inhibition in assay [6] and in [4] was less than 50% each time.

As for `N=C(N)Nc1ncc(Cl)c2ccccc12`, in assay [7], the inhibition was less than 50%.

As to `N=C(N)Nc1nccc2c(OCc3ccccc3)cccc12`, the inhibition in assay [6] was less than 50%.

`N=C(N)Nc1cc2ccccc2cn1`: the inhibition in [7] and in [8] was less than 50% each time.

As for `N=C(N)Nc1nccc2cc(Br)ccc12`, the inhibition in assay [8] was less than 50%.

As for `COc1ccc(C#N)cc1-c1ccc2c(Cl)cnc(N=C(N)N)c2c1`, the inhibition in assay [9] and in [4] was less than 50% each time. Also, the pKi in [1] is 6.74.

Compound `N=C(N)Nc1ncc(Br)c2ccccc12` showed an inhibition in [7] of less than 50%. The compound further showed a pKi in [3] of 3.80.

`NC(N)=Nc1ncc(Cl)c2ccc(-c3cccc(C(=O)O)c3)cc12`: the pKi in assay [1] is 7.43.

In the case of `COc1cccc(-c2ccc3c(Cl)cnc(N=C(N)N)c3c2)c1`, the inhibition in [4] was less than 50%. This compound showed a pKi in assay [1] of 7.08.

On to `NC(N)=Nc1nccc2ccc(Br)cc12`, for which the pKi was 4.29 in [2] and 4.02 in assay [3].

`N=C(N)Nc1nccc2ccc(OCc3ccccc3)cc12` came in with an inhibition in [6] of less than 50%. The pKi in assay [3] was 4.89; in assay [1] it was 5.32.

For `COc1ccc(-c2ccc3c(Cl)cnc(N=C(N)N)c3c2)cc1`, the pKi in assay [2] is 5.52. The same compound had an inhibition in assay [4] of less than 50%.

Take `COc1cccc2c(N=C(N)N)nccc12`: the inhibition in [10] and in assay [8] was less than 50% throughout. In [1], this compound had a pKi of 5.44.

Take `NC(N)=Nc1nccc2cc(Br)ccc12`: in [2], the negative-log Ki (pKi) is 3.88.

For `N#Cc1ccc(-c2ccc3c(Cl)cnc(NC(=N)N)c3c2)cc1`, the inhibition was 82% in [5] and less than 50% in assay [4].

For the compound `NC(N)=Nc1ncc(Cl)c2ccccc12`, the pKi in [3] is 3.89; in assay [1] it was 6.08.

Turning to `N=C(N)Nc1nccc2c(Br)cccc12`, the figures for the pKi in assay [2], in [3] and in assay [1] were 3.62, 3.85 and 5.31, respectively.

For `N=C(N)Nc1nccc2ccc(-c3ccc4c(c3)OCO4)cc12`, the pKi in assay [2] is 4.92. This compound also gave an inhibition in assay [8] of 55%.

For the compound `N=C(N)Nc1ncc(Cl)c2ccc(-c3ccc(C(=O)O)cc3)cc12`, the inhibition is 65% in [11] and less than 50% in [4]. In addition, the pKi in assay [1] is 7.09.

For `COc1ccc2ccnc(N=C(N)N)c2c1`, the inhibition in assay [6] and in assay [4] was less than 50% each time. For the same compound, the pKi in [1] is 6.18.

`NC(N)=Nc1nccc2ccc(-c3ccccc3)cc12`: the pKi is 4.32 in assay [2], 3.91 in [3] and 6.40 in assay [1].

Consider `N=C(N)Nc1ncc(Cl)c2ccc(-c3ccccc3)cc12`, for which the inhibition in assay [9] and in assay [12] was less than 50% in each case.

Compound `NC(N)=Nc1nccc2c(OCc3ccccc3)cccc12` showed a pKi in assay [3] of 4.89.

`COc1ccc(C(=O)O)cc1-c1ccc2c(Cl)cnc(N=C(N)N)c2c1`: the pKi is 5.32 in [2] and 8.05 in assay [1]. In addition, in assay [4], the inhibition is less than 50%.

For `N=C(N)Nc1nccc2ccc(CO)cc12`, the inhibition is 55% in assay [6] and less than 50% in assay [4]. Besides, in assay [1], the pKi was 5.89.

Compound `N=C(N)Nc1ccc2ccccc2n1` came in with an inhibition in [7] of less than 50%.

For `Cc1ccc(-c2ccc3c(Cl)cnc(N=C(N)N)c3c2)cc1`, the pKi was 5.14 in assay [2], 4.72 in assay [3] and 6.89 in assay [1].

As for `NC(N)=Nc1ccc2ccccc2n1`, the pKi is 3.44 in [3] and 3.68 in assay [1].

As for `COc1ccccc1-c1ccc2c(Cl)cnc(N=C(N)N)c2c1`, the pKi in [2] is 4.84; in assay [3] it was 4.81.

`NC(N)=Nc1nccc2ccccc12`: the pKi in assay [13] is 4.17; in [3], 3.90; in assay [1], 5.72.

Turning to `N=C(N)Nc1nccc2ccc(C(=O)O)cc12`, the inhibition in assay [6] and in assay [4] was less than 50% throughout.

As for `N#Cc1cccc(-c2ccc3c(Cl)cnc(N=C(N)N)c3c2)c1`, the pKi is 5.39 in assay [2] and 6.52 in [1].
